Data from US20240368104A1, “Novel Dialkoxynaphtho[2,3-C]Furan-1(3H)-One Derivatives and Pharmaceutical Composition For Preventing or Treating Respiratory Disease or SARS-COV-2 Infection Disease, Comprising Same” (priority 2021, published 2024).
Where two headings read alike, the source gives them in different places.

How the values were obtained:
SARS-COV-2 = test: microbe, parasite or virus in culture; assay type: cell-based; design: SI (Selectivity Index, CC50/IC50): unit not given here; conditions: for SI (Selectivity Index, CC50/IC50): SARS-COV-2, values >50 assumed to be 50; for IC50: read-out: SARS-COV-2 inhibition (IC50)
[1] = system: IL-4 secretion in RBL-2H3 cells; test: Inhibition of IL-4 secretion in RBL-2H3 cell line (A23187 induced, ELISA); assay type: cell-based; conditions: Rattus norvegicus
Protocol: The RBL-2H3 cell line was purchased from the American Type Culture Collection (ATCC #CRL-2256). The cells were diluted at a concentration of 1×10^6 cells/ml in RPMI medium containing 15% fetal bovine serum (FBS) and antibiotics (penicillin at 100 U/mL, streptomycin at 100 μg/mL), distributed at 200 μl/well in a 48 well plate, and cultured in a 37° C., 5% CO2 incubator for 24 hours. In 24 hours later, the cells were pre-treated one hour before with a test drug and AS1517499 (STAT6 inhibitor) as a control drug, and treated with 1 uM of A23187 for six hours to induce an immune response, after which a group not containing the drug was used as a control. In order to measure a secretion level of cytokine IL-4, the medium was collected from the well plate and centrifuged at 125×g for five minutes to remove a residue, and 100 μl of the medium was used to measure an amount of IL-4 secreted from the cells by using IL-4 enzyme-linked immunosorbent assay (ELISA, Komabiotech). A degree of inhibition of cell secretion by the drug was calculated using [Equation 1] below.
First of all, 288 kinds of materials were treated at a single concentration of 10 uM so as to select 60 kinds of materials which inhibit secretion of IL-4 by 75% or more (FIG. 19).
After that, a repeated experiment and a two-concentration (10, 3 uM) test were performed using the selected 60 kinds of materials so as to select the final eight kinds, and the IC50 value was calculated and shown in Table 3.

[2] = system: IL-4 secretion in mouse splenocytes; test: Inhibition of IL-4 secretion in mouse splenocytes (Concanavalin A, ELISA); assay type: cell-based, Balb/c mice; conditions: for inhibition at 1 µM: Splenocyte, read-out: IL-4 Secretion inhibitory ability (%); for IL-4 pg/ml: Concanavalin A 5 μg/mL, 48 hours
Protocol: (§1) The isolated splenocytes were diluted at a concentration of 5×10^6 cells/mL in RPMI medium containing 10% fetal bovine serum (FBS) and antibiotics (penicillin at 100 U/mL, streptomycin at 100 μg/mL), distributed at 500 μl/well in a 24 well plate, and cultured in a 37° C., 5% CO2 incubator for 48 hours. When splenocytes were distributed, an immune reaction was induced by treating with 5 μg/mL of Concanavalin A, and at this time, the splenocytes were treated with the materials selected in Experimental Example 3 at a concentration of 1 uM. First, in order to measure Th2 cytokines, the medium was collected from the 24-well plate, and only the supernatant was separated through centrifugation at 800×g for five minutes, after which 100 μl of the supernatant per well was used in an enzyme-linked immunosorbent assay (ELISA, Komabiotech) experiment so as to measure a degree of secretion of Th2 cytokines IL-4 and IL-5. A degree of inhibition against secretion of cytokines by the test material was calculated using [Equation 2] below, and the measurement results are shown in Table 7.

[3] = system: IL-5 secretion in mouse splenocytes; test: Inhibition of IL-5 secretion in mouse splenocytes (Concanavalin A, ELISA); assay type: cell-based, Balb/c mice; conditions: for inhibition at 1 µM: Splenocyte, read-out: IL-5 Secretion inhibitory ability (%); for IL-5 pg/ml: Concanavalin A 5 μg/mL, 48 hours
Protocol: as §1

in vitro = conditions: African green monkey
[4] = system: SFTS virus (KADGH; NCCP43261); test: microbe, parasite or virus in culture; assay type: cell-based, severe fever with thrombocytopenia syndrome virus; conditions: Severe fever with thrombocytopenia syndrome virus, Vero, 24 h, read-out: SFTSV inhibition (IC50, μM)
[5] = system: IL-5 expression in Th2 cells; test: Inhibition of IL-5 expression in Th2 cells (ELISA); assay type: cell-based, Balb/C mice; conditions: Splenocyte; Th2 cells from mouse splenocytes, compound 1 nM; read-out: Inhibitory ability against IL-5 expression (%)
Protocol: Specifically, after spleens were collected from Balb/C mice, CD4+ T cells were isolated therefrom and were seeded at 1-2×10^6 per well into a 48-well tissue culture plate coated with anti-CD3 (5 ug/ml) and anti-CD28 (1 ug/ml). At this time, the culture medium was incubated with IL-2 (20 ng/ml), IL-4 (100 ng/ml), anti-IFNγ (10 ug/ml), anti-IL12 (10 ug/ml), and a derivative of 1 nM for two days, transferred to a new tissue culture plate, and further cultured for three days to induce differentiation into Th2 cells. After replacing with a new medium containing anti-IFNγ (10 ug/ml), anti-IL12 (10 ug/ml) and a derivative of 1 nM, polarization of Th2 cells was induced using PMA and A23187. After two days of culture, the cells were centrifuged and the culture medium was taken to perform IL-5 ELISA. IL-5 ELISA was performed according to the test method of the kit manufacturer.

[6] = system: Balb/c mouse asthma model; test: Balb/c mouse asthma model (ovalbumin), BALF IgE, IL-4, IL-5 and inflammatory cells; assay type: in vivo, Balb/c mice; conditions: Example 73 10 mg/kg oral, dexamethasone 1 mg/kg intraperitoneal
Protocol: In detail, five-week-old Balb/c mice were purchased and acclimated for one week, after which the mice were sensitized systemically by intraperitoneal injection with 0.1% ovalbumin (OVA 1 mg/mL, Al(OH)3 20 mg/mL) at 100 μl/mouse on days 0 and 14 from a week after the acclimation. From a week (day 21) after a final systemic sensitization, the compound of Example 73 was orally administered everyday at 10 mg/kg to mice for ten days, and dexamethasone was intraperitoneally administered at 1 mg/kg as a positive control group. In one hour later, 0.2% ovalbumin solution was sprayed with a nebulizer (PARIBoy SX, GmbH, Germany) so as to be inhaled for one hour. In five hours after the final sensitization (day 30), an autopsy was performed, and 1 mL of phosphate buffer solution was flowed through a tracheotomy to collect a bronchoalveolar lavage fluid (BALF). The collected BALF was centrifuged at 3000 rpm for ten minutes, and the supernatant was used to measure bioactive materials (IL-4, IL-5), and pellets were used to measure the number of inflammatory cells. In addition, an IgE concentration in the isolated BALF was measured using IgE enzyme-linked immunosorbent assay (ELISA, Komabiotech), and IL-4 and IL-5 were measured using their respective enzyme-linked immunosorbent assay (ELISA, IL-4: Enzo #ADI-900-043, IL-5: R&D system #M5000).
The results are shown in Table 8 and FIG. 22, and each secretion inhibitory activity was calculated in the same manner as in [Equation 2] of Experimental Example 4.
In addition, the BALF pellets were re-dissolved by adding 0.5 mL of phosphate buffer solution, and then 0.1 mL for each thereof was added to a 96-well plate and centrifuged at 800 rpm for five minutes to attach cells to the bottom (three wells per sample). Then, the cells were stained with Diff Quik staining solution (Sysmex) and the number of cells was measured with […].
The results were shown in FIG. 21, the SPSS program was used for statistical processing, the Levene test was performed for equal-variance test, and the significance test was performed through one-way ANOVA.

[7] = Severe acute respiratory syndrome coronavirus 2, Vero cells, 24 hours infection
[8] = mouse splenocytes, compound 1 μM
[9] = RBL-2H3, read-out: IL-4 secretion inhibition IC50 (μM)

| Structure (SMILES) | SI (Selectivity Index, CC50/IC50) (SARS-COV-2) | IC50 (SARS-COV-2; [7]) | CC50 (in vitro) | inhibition at 0.001 µM [5] | other results |
| --- | --- | --- | --- | --- | --- |
| COc1cc2cc3c(c(-c4cnc(N5CCSCC5)nc4)c2cc1OC)C(=O)OC3 [Example 63, 6,7-dimethoxy-9-(2-thiomorpholinopyrimidin-5-yl)naphtho[2,3-c]furan-1(3H)-one] | 23.56 | 2.12 µM | > 50 µM | – | IC50 ([1]; RBL-2H3 cells, 1 uM A23187, read-out: IL-4 secretion inhibition IC50): 4.23 µM; inhibition at 1 µM [2, 8]: 99.6%; IL-4 pg/ml [2, 8]: 1.3 pg/mL; inhibition at 1 µM [3, 8]: 81.6%; IL-5 pg/ml [3, 8]: 17.2 pg/mL |
| COc1cc2cc3c(c(-c4cnc(N(C)C5CCCC5)nc4)c2cc1OC)C(=O)OC3.Cl [Example 84, 9-(2-(cyclopentyl(methyl)amino)pyrimidin-5-yl)-6,7-dimethoxynaphtho[2,3-c]furan-1(3H)-one hydrochloride] | 237.53 | – | > 50 µM | – | IC50 (SARS-COV-2; Severe acute respiratory syndrome coronavirus 2, Vero, 24 h): 0.21 µM; IC50 [1, 9]: 5.23 µM; inhibition at 1 µM ([2]; Mus musculus): 99.7%; IL-4 pg/ml [2, 8]: 1.1 pg/mL; inhibition at 1 µM ([3]; Mus musculus): 88%; IL-5 pg/ml [3, 8]: 11.2 pg/mL |
| NC(=O)c1nc(F)c[nH]c1=O [Favipiravir] | – | – | – | – | IC50 [4]: 278 µM |
| CCCCN(C)c1ncc(-c2c3c(cc4cc(OC)c(OC)cc24)COC3=O)cn1.Cl [Example 76, 9-(2-(butyl(methyl)amino)pyrimidin-5-yl)-6,7-dimethoxynaphtho[2,3-c]furan-1(3H)-one hydrochloride] | 270.89 | – | – | – | IC50 [1, 9]: 4.05 µM; inhibition at 1 µM ([2]; Mus musculus): 99.6%; IL-4 pg/ml [2, 8]: 1.2 pg/mL; inhibition at 1 µM ([3]; Mus musculus): 85.6%; IL-5 pg/ml [3, 8]: 13.4 pg/mL |
| COc1cc2cc3c(c(-c4cnc(Oc5ccc6c(c5)OCO6)nc4)c2cc1OC)C(=O)OC3 [Example 20, 9-(2-(benzo[d][1,3]dioxol-5-yloxy)pyrimidin-5-yl)-6,7-dimethoxynaphtho[2,3-c]furan-1(3H)-one] | 1.00 | > 50 µM | > 50 µM | 40.8% | – |
| COc1cc2cc3c(c(-c4cnc(N5CCC[C@H]5C(=O)NCc5ccc(C)o5)nc4)c2cc1OC)C(=O)OC3 [Example 41, (S)-1-(5-(6,7-dimethoxy-3-oxo-1,3-dihydronaphtho[2,3-c]furan-4-yl)pyrimidin-2-yl)-N-((5-methylfuran-2-yl)methyl)pyrrolidin-2-carboxamide] | 2.41 | 15.2 µM | > 50 µM | 66% | – |
| COc1cc2cc3c(c(-c4ccc5oc6ccccc6c5c4)c2cc1OC)C(=O)OC3 [Example 43, 9-(dibenzo[b,d]furan-2-yl)-6,7-dimethoxynaphtho[2,3-c]furan-1(3H)-one] | 1.00 | > 50 µM | > 50 µM | 65.9% | – |
| COc1cc2cc3c(c(-c4cnc(N[C@H]5CCc6c(cccc6OC)C5)nc4)c2cc1OC)C(=O)OC3 [Example 22, (S)-6,7-dimethoxy-9-(2-((5-methoxy-1,2,3,4-tetrahydronaphthalen-2-yl)amino)pyrimidin-5-yl)naphtho[2,3-c]furan-1(3H)-one] | 10.64 | 4.7 µM | > 50 µM | 59.9% | – |
| C[C@@H]1C[C@H]2[C@@H]3CCC4=CC(=O)C=C[C@]4(C)[C@@]3(F)[C@@H](O)C[C@]2(C)[C@@]1(O)C(=O)CO [Dexamethasone, dexamethasone, reference compound] | – | – | – | – | BALF IL-4 Secretion inhibitory ability % [6]: (102.7%); BALF IL-5 Secretion inhibitory ability % [6]: (50.0%); BALF IgE Secretion inhibitory ability % [6]: (93.0%); BALF IL-4 pg/ml ([6]; Mean ± S.D., n = 5, ten days): 32.9 ± 4.534 ^## pg/ml; BALF IL-5 pg/ml ([6]; Mean ± S.D., n = 5, ten days): 15.6 ± 8.07 pg/mL; BALF IgE ng/ml ([6]; Mean ± S.D., n = 5, ten days): 1.3 ± 0.536 ^## ng/ml |
| CCC(C)Oc1ncc(-c2c3c(cc4cc(OC)c(OC)cc24)COC3=O)cn1 (stereo not drawn) [Example 25, 9-(2-(sec-butoxy)pyrimidin-5-yl)-6,7-dimethoxynaphtho[2,3-c]furan-1(3H)-one] | 1.00 | > 50 µM | > 50 µM | 56.8% | – |
| COc1cc2cc3c(c(-c4cnc(N5CCC[C@H]5C(=O)N5C[C@@H](C)O[C@@H](C)C5)nc4)c2cc1OC)C(=O)OC3 [Example 24, 9-(2-((S)-2-((2S,6R)-2,6-dimethylmorpholin-4-carbonyl)pyrrolidin-1-yl)pyrimidin-5-yl)-6,7-dimethoxynaphtho[2,3-c]furan-1(3H)-one] | 1.00 | > 50 µM | > 50 µM | 72.3% | – |
| COCCN(C)c1ncc(-c2c3c(cc4cc(OC)c(OC)cc24)COC3=O)cn1 [Example 18, 6,7-dimethoxy-9-(2-((2-methoxyethyl)(methyl)amino)pyrimidin-5-yl)naphtho[2,3-c]furan-1(3H)-one] | 99.07 | 0.5 µM | > 50 µM | 72.3% | – |
